This is an account of results in ChEMBL document CHEMBL1139879, “Indolizidine alkaloids with delta-opioid receptor binding affinity from the leaves of Elaeocarpus fuscoides” (J Nat Prod, 2007).

The target of this assay is Delta-type opioid receptor (Homo sapiens, UniProt P41143). The assay is described as follows: Displacement of [125I]deltorphin 2 from human recombinant delta opioid receptor expressed in HEK cell membranes. More on the design: species or system HEK293.
Sequence of Delta-type opioid receptor (P41143 whole entry): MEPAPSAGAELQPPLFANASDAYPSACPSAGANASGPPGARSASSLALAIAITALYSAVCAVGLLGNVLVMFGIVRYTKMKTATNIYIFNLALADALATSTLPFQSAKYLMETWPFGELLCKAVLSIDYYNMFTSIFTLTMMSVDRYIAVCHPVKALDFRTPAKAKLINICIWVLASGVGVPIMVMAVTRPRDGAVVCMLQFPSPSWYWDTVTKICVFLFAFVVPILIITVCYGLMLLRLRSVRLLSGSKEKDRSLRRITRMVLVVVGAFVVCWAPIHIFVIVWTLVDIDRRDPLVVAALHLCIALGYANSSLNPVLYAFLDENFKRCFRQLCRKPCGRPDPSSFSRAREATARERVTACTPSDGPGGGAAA

Regarding `Cc1cccc(O)c1C(=O)C1=CCCN2CCC[C@H]12` [ELAEOCARPENINE], the IC50 amounted to 2.74 µM.

In the case of `Cc1cccc2c1C(=O)C1[C@H]3CCCN3CC[C@H]1O2` (some centres undefined) [ELAEOCARPINE], the IC50 was 86.4 µM.

Regarding `Cc1cccc(O)c1C(=O)[C@@H]1[C@H]2CCCN2CC[C@@H]1O` [ISOELAEOCARPICINE], the half-maximal inhibitory concentration (IC50) is 35.1 µM.

As for `Cc1cccc2c1C(=O)[C@H]1[C@H](CCN3CCC[C@H]13)O2` [ISOELAEOCARPINE], the IC50 was determined as 13.6 µM.

As usually defined, the IC50 is the concentration at which inhibition is half-maximal.
